# Reference: ChEMBL document CHEMBL1681704, “Design and synthesis of novel allosteric MEK inhibitor CH4987655 as an orally available anticancer agent” (Bioorg Med Chem Lett, 2011)
# Active and inactive are the calls of the source. The calls are words filed in the database; no cut-off is given here.
# Assays:
# [1] = Inhibition of MEK after 30 mins
# HT-29 [2] = experiment: Cytotoxicity against human HT-29 cells after 4 days; type: functional, cell-based; conditions: HT-29, 96 h
# QG-56 = experiment: Cytotoxicity against human QG56 cells after 4 days; type: functional, cell-based; conditions: QG-56, 96 h
# [3] = Solubility in 50 mM phosphate buffer at pH 6.5 after 2 hrs; type: physicochemical
# [4] = Half life in mouse liver microsomes at 1 uM; type: ADME, Microsome
# [5] = Half life in human liver microsomes at 1 uM; type: ADME, Microsome
# [6] = Toxicity in human HT-29 cells xenografted BALB/c nu/nu mouse assessed as maximum tolerable dose; type: organism-based; conditions: in vivo
# HT-29 [7] = experiment: Antitumor activity against human HT-29 cells xenografted in BALB/c nu/nu mouse assessed as tumor growth inhibition at maximum tolerable dose administered as po qd for 14 days; type: functional
# Cytochrome P450 3A4 = Cytochrome P450 3A4 (Homo sapiens, UniProt P08684); experiment: Inhibition of CYP3A4; type: ADME
# [8] = Genotoxicity in Salmonella Typhimurium by Ames test; type: toxicity; conditions: salmonella enterica subsp. enterica serovar typhimurium
# [9] = target: Voltage-gated inwardly rectifying potassium channel KCNH2 (Homo sapiens, UniProt Q12809); experiment: Inhibition of human ERG
# Brain = experiment: Inhibition of MEK in human HT-29 cells xenografted in BALB/c nu/nu mouse brain assessed as phosphorylated ERK level at maximum tolerable dose administered as po; type: functional, cell-based
# HT-29 [10] = experiment: Inhibition of MEK in human HT-29 cells xenografted in BALB/c nu/nu mouse tumor assessed as phosphorylated ERK level at maximum tolerable dose administered as po; type: functional, cell-based; conditions: Neoplasm
# [11] = Antitumor activity against human H441 cells expressing Kras G12V mutant xenografted in CAnN.Cg-Foxn1 nu/CrlCrlj mouse assessed as tumor regression at maximum tolerable dose administered as po qd for 14 days; type: functional, NCI-H441
# HT-29 [12] = experiment: Antitumor activity against human HT-29 cells expressing b-Raf V600E mutant xenografted in CAnN.Cg-Foxn1 nu/CrlCrlj mouse assessed as tumor regression at maximum tolerable dose administered as po qd for 14 days; type: functional
# PANC-1 = experiment: Antitumor activity against human PANC1 cells expressing Kras […] mutant xenografted in CAnN.Cg-Foxn1 nu/CrlCrlj mouse assessed as tumor regression at maximum tolerable dose administered as po qd for 14 days; type: functional
# [13] = Tmax in cynomolgus monkey at 1.5 mg/kg, po; type: ADME, organism-based, Macaca fascicularis; design: dose 1.5 mg/kg, route oral; conditions: in vivo
# [14] = Cmax in cynomolgus monkey at 1.5 mg/kg, po; type: ADME, organism-based, Macaca fascicularis; design: dose 1.5 mg/kg, route oral; conditions: in vivo
# [15] = AUC (infinity) in cynomolgus monkey at 1.5 mg/kg, po; type: ADME, organism-based, Macaca fascicularis; design: time infinity, dose 1.5 mg/kg, route oral; conditions: plasma
# [16] = Half life in cynomolgus monkey at 1.5 mg/kg, po; type: ADME, organism-based, Macaca fascicularis; design: dose 1.5 mg/kg, route oral; conditions: in vivo
# [17] = MRT (infinity) in cynomolgus monkey at 1.5 mg/kg, po; type: ADME, organism-based, Macaca fascicularis; design: dose 1.5 mg/kg, route oral; conditions: in vivo
# [18] = Tmax in cynomolgus monkey at 3 mg/kg, po; type: ADME, organism-based, Macaca fascicularis; design: dose 3 mg/kg, route oral; conditions: in vivo
# [19] = Cmax in cynomolgus monkey at 3 mg/kg, po; type: ADME, organism-based, Macaca fascicularis; design: dose 3 mg/kg, route oral; conditions: in vivo
# [20] = AUC (infinity) in cynomolgus monkey at 3 mg/kg, po; type: ADME, organism-based, Macaca fascicularis; design: time infinity, dose 3 mg/kg, route oral; conditions: plasma
# [21] = Half life in cynomolgus monkey at 3 mg/kg, po; type: ADME, organism-based, Macaca fascicularis; design: dose 3 mg/kg, route oral; conditions: in vivo
# [22] = MRT (infinity) in cynomolgus monkey at 3 mg/kg, po; type: ADME, organism-based, Macaca fascicularis; design: dose 3 mg/kg, route oral; conditions: in vivo
# [23] = Tmax in cynomolgus monkey at 6 mg/kg, po; type: ADME, organism-based, Macaca fascicularis; design: dose 6 mg/kg, route oral; conditions: in vivo
# [24] = Cmax in cynomolgus monkey at 6 mg/kg, po; type: ADME, organism-based, Macaca fascicularis; design: dose 6 mg/kg, route oral; conditions: in vivo
# [25] = AUC (infinity) in cynomolgus monkey at 6 mg/kg, po; type: ADME, organism-based, Macaca fascicularis; design: time infinity, dose 6 mg/kg, route oral; conditions: plasma
# [26] = Half life in cynomolgus monkey at 6 mg/kg, po; type: ADME, organism-based, Macaca fascicularis; design: dose 6 mg/kg, route oral; conditions: in vivo
# [27] = MRT (infinity) in cynomolgus monkey at 6 mg/kg, po; type: ADME, organism-based, Macaca fascicularis; design: dose 6 mg/kg, route oral; conditions: in vivo
# Cynomolgus monkey = experiment: In vivo metabolic stability in cynomolgus monkey assessed as plasma concentration at 2 mg/kg, po; type: ADME, organism-based, Macaca fascicularis; design: dose 2 mg/kg, route oral
# Chain of Cytochrome P450 3A4 (P08684 whole entry): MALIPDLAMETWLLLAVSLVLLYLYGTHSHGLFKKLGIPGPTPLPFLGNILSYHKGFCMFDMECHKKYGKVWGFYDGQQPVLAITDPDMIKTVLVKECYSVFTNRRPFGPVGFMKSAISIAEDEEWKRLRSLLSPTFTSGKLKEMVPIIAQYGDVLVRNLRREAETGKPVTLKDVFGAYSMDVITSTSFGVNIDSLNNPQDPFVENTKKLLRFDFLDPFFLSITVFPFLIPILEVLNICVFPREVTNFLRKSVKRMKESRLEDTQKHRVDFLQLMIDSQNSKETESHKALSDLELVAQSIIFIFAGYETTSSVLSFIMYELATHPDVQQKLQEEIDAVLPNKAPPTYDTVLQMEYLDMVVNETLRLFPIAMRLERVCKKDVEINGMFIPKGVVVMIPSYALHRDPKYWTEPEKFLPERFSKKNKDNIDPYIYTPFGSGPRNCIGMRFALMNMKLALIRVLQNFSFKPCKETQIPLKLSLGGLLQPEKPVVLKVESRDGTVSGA
# Chain of Voltage-gated inwardly rectifying potassium channel KCNH2 (Q12809 whole entry): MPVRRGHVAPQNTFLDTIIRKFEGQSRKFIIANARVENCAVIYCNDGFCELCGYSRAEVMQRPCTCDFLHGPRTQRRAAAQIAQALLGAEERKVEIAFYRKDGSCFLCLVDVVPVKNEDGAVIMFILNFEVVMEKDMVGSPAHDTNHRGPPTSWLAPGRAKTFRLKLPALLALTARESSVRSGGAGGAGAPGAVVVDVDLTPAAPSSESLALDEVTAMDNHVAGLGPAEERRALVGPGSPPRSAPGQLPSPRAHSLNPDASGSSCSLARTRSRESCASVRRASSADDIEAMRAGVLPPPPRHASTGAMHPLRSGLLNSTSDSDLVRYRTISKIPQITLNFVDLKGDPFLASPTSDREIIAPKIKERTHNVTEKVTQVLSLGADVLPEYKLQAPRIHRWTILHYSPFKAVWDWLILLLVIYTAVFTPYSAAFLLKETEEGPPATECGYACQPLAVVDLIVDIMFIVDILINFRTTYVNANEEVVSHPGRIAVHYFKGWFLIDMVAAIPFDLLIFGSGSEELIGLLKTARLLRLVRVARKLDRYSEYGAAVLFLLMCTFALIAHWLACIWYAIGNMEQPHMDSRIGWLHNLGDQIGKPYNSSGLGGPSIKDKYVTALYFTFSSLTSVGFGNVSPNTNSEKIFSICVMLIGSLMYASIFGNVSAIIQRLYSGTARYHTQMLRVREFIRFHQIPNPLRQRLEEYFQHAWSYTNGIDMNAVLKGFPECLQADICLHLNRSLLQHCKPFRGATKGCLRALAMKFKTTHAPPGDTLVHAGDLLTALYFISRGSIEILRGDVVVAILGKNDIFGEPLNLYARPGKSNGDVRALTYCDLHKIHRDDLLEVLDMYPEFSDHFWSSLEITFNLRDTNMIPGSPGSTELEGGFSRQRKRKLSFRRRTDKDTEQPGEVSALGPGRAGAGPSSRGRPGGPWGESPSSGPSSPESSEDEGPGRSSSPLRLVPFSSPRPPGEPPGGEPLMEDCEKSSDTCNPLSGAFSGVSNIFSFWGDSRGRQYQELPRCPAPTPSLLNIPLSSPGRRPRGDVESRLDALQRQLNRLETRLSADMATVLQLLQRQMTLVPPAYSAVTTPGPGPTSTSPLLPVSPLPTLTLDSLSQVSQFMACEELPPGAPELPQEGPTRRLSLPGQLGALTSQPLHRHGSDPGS
smiles,measurement,setting,value
O=C(NOCCO)c1cc(CN2CCOC2=O)c(F)c(F)c1Nc1ccc(I)cc1F,IC50,[1],> 0.25 µM
same,IC50,HT-29 [2],0.56 µM
same,IC50,QG-56,3.06 µM
same,solubility at 2 h,[3],284 µM
same,half-life at 1 µM,[4],> 6 h
same,half-life at 1 µM,[5],> 6 h
O=C(NOCCO)c1cc(CN2OCCC2=O)c(F)c(F)c1Nc1ccc(I)cc1F,half-life at 1 µM,[4],> 6 h
same,half-life at 1 µM,[5],> 6 h
same,MTD,[6],12.5 mg/kg
CS(=O)(=O)CCO/N=C/c1cc(C(=O)NOCCO)c(Nc2ccc(I)cc2F)c(F)c1F,IC50,[1],0.067 µM
same,IC50,HT-29 [2],0.027 µM
same,IC50,QG-56,0.024 µM
same,solubility at 2 h,[3],1 µM
same,half-life at 1 µM,[4],> 6 h
same,half-life at 1 µM,[5],1.5 h
same,TGI,HT-29 [7],98%
same,MTD,[6],> 200 mg/kg
O=C(NOCCO)c1cc(CN2CCCC2=O)c(F)c(F)c1Nc1ccc(I)cc1F,IC50,[1],0.085 µM
same,IC50,HT-29 [2],0.02 µM
same,IC50,QG-56,0.057 µM
same,solubility at 2 h,[3],156 µM
same,half-life at 1 µM,[4],2.07 h
same,half-life at 1 µM,[5],3.08 h
O=C(NOCCO)c1cc(CN2OCCCC2=O)c(F)c(F)c1Nc1ccc(I)cc1F [RO-4987655],half-life at 1 µM,[4],> 6 h
same,half-life at 1 µM,[5],1.93 h
same,IC50,Cytochrome P450 3A4,> 100 µM
same,Activity,[8],Non-toxic
same,inhibition (INH),[9],Not Active
same,inhibition,Brain,inactive
same,inhibition,HT-29 [10],Active
same,Activity,[11],70%
same,Activity,HT-29 [12],70%
same,Activity,PANC-1,70%
same,Tmax,[13],1.3 h
same,Cmax,[14],400 ng/mL
same,AUC(0-inf),[15],2200 ng·h/mL
same,half-life,[16],6.6 h
same,MRT inf,[17],8.4 h
same,Tmax,[18],2.5 h
same,Cmax,[19],1000 ng/mL
same,AUC(0-inf),[20],7400 ng·h/mL
same,half-life,[21],6 h
same,MRT inf,[22],8.8 h
same,Tmax,[23],1.5 h
same,Cmax,[24],2100 ng/mL
same,AUC(0-inf),[25],10400 ng·h/mL
same,half-life,[26],5 h
same,MRT inf,[27],7.3 h
O=C(NOC[C@H](O)CO)c1ccc(F)c(F)c1Nc1ccc(I)cc1F [MIRDAMETINIB],Stability,Cynomolgus monkey,Stable
same,inhibition,Brain,Active
same,inhibition,HT-29 [10],Active
same,Tmax,[23],1.1 h
same,Cmax,[24],1700 ng/mL
same,AUC(0-inf),[25],7900 ng·h/mL
same,half-life,[26],5.5 h
same,MRT inf,[27],7.3 h
O=C(NOCCO)c1cc(CNOCCO)c(F)c(F)c1Nc1ccc(I)cc1F,half-life at 1 µM,[4],2.13 h
same,half-life at 1 µM,[5],> 6 h
same,MTD,[6],100 mg/kg
O=C(NOCCO)c1cc(/C=N\OCCO)c(F)c(F)c1Nc1ccc(I)cc1F,IC50,[1],0.015 µM
same,IC50,HT-29 [2],0.0024 µM
same,IC50,QG-56,0.006 µM
same,half-life at 1 µM,[4],> 6 h
same,half-life at 1 µM,[5],> 6 h
same,TGI,HT-29 [7],95%
same,MTD,[6],12.5 mg/kg
CC(C)(O)CO/N=C/c1cc(C(=O)NOCCO)c(Nc2ccc(I)cc2F)c(F)c1F,IC50,[1],0.037 µM
same,IC50,HT-29 [2],0.04 µM
same,IC50,QG-56,0.128 µM
same,half-life at 1 µM,[4],> 6 h
same,half-life at 1 µM,[5],> 6 h
same,TGI,HT-29 [7],85%
same,MTD,[6],100 mg/kg
O=C(NOCCO)c1cc(/C=N/OCCO)c(F)c(F)c1Nc1ccc(I)cc1F,IC50,[1],0.1 µM
same,IC50,HT-29 [2],0.08 µM
same,IC50,QG-56,0.16 µM
same,half-life at 1 µM,[4],3.95 h
same,half-life at 1 µM,[5],1.08 h
same,TGI,HT-29 [7],82%
same,MTD,[6],100 mg/kg
O=C(NOCCO)c1cc(COCCO)c(F)c(F)c1Nc1ccc(I)cc1F,half-life at 1 µM,[4],> 6 h
same,half-life at 1 µM,[5],> 6 h
same,MTD,[6],50 mg/kg
C#Cc1ccc(Nc2c(C(=O)NOCCO)cc(/C=N/OCCO)c(F)c2F)c(F)c1,IC50,[1],0.235 µM
same,IC50,HT-29 [2],0.15 µM
same,IC50,QG-56,0.16 µM
same,half-life at 1 µM,[4],2.25 h
same,half-life at 1 µM,[5],1.33 h
same,TGI,HT-29 [7],82%
same,MTD,[6],> 200 mg/kg
O=C(NOCCO)c1cc(CN2OCCOC2=O)c(F)c(F)c1Nc1ccc(I)cc1F,IC50,[1],0.042 µM
same,IC50,HT-29 [2],0.017 µM
same,IC50,QG-56,0.056 µM
same,solubility at 2 h,[3],57 µM
same,half-life at 1 µM,[4],2.1 h
same,half-life at 1 µM,[5],0.633 h
CON(Cc1cc(C(=O)NOCCO)c(Nc2ccc(I)cc2F)c(F)c1F)C(C)=O,solubility at 2 h,[3],116 µM
same,half-life at 1 µM,[4],0.6 h
same,half-life at 1 µM,[5],1.07 h
same,MTD,[6],25 mg/kg
CC(=O)NCCO/N=C/c1cc(C(=O)NOCCO)c(Nc2ccc(I)cc2F)c(F)c1F,IC50,[1],0.048 µM
same,IC50,HT-29 [2],0.086 µM
same,IC50,QG-56,0.199 µM
same,half-life at 1 µM,[4],> 6 h
same,half-life at 1 µM,[5],> 6 h
same,TGI,HT-29 [7],99%
same,MTD,[6],> 200 mg/kg
